Assay results as given in US20250263437A1, “POLYPEPTIDE FOR REPAIRING SKIN WOUND OR MUCOSAL INJURY, AND APPLICATION THEREOF” (Sichuan Gooddoctor Panxi Pharmaceutical Co., Ltd., priority 2021, published 2025).
“Also recorded” adds a separate entry of the source. Where no end group is shown, it is not given here.

Experiments:
[1] = system: ethanol-induced gastric ulcer model in mice; assay: Anti-ulcer effect on ethanol-induced gastric ulcer model in mice; assay type: in vivo; details: single administration; ulcer inhibition rate of test compound / ulcer inhibition rate of Compound 1
Method: Experimental animals: Six-week old C57BL/6JGPt male mice, weighing about 20 g/mouse, were selected, with 10 mice in each group, from GemPharmatech (Chengdu) Co., Ltd., animal license number: SCXK (Chuan) 2020-034. After the experimental animals were divided into groups, they were dosed according to Table 5 one day before the experiment. Among the groups, the model group was given 200 μl of pure water, and the other dose groups were given 200 μl of drug solution. After that, all the animals were fasted for 24 h with free access to water. The next day, 1 h after administration, the mice in each group were given 9 μl/g of absolute ethanol by oral gavage for modeling. After 1 h, the animals were sacrificed by cervical dislocation, the gastric cardia was ligated, the pylorus was occluded, and the whole stomach was removed. 1 mL of 1% formaldehyde solution was injected into the gastric lumen via the glandular stomach, the cardia was ligated, and the stomach was taken out and immediately immersed in 1% formaldehyde solution. After soaking for 30 min, the stomach tissue was taken out and cut open along the greater curvature. The content of the stomach was rinsed off with normal saline, the injury of the gastric mucosa in the mice were observed and measured after being laid flat, and the ulcer index and ulcer inhibition rate were calculated; panoramic photos of the stomach were taken; and finally, the gastric tissue sample was immersed in formalin and fixed. Calculation method for ulcer index: If the length of cord-like injury was greater than 1 mm, the length thereof was measured, with 1 point per millimeter; if the width thereof was greater than 1 mm, the score thereof was doubled according to the number of millimeters of the width; and if the length was less than 1 mm, a score of 0.5 was given, and the scores were added up to obtain the ulcer index of the animal. Method of data statistics: the ulcer index was expressed as mean±standard deviation; the ulcer inhibition rate was calculated by using the median value and mean value of the ulcer index in each dosage group and simulation group; and the data were statistically analyzed by means of Excel, and the difference data of the gastric ulcer index were statistically analyzed by means of independent sample T test.

HaCaT cells = assay: Proliferation of HaCaT cells (CCK8); assay type: cell-based, human; details: 0.2-0.8 μg/mL; 24 h, 48 h and 72 h; 1% serum
Method: Experimental method: Immortalized human keratinocytes (HaCaT cells) was adjusted to a concentration of 1.0×10^5 to 5.0×10^5/mL for passaging, and they were cultured at 37° C. and 5% CO2 for 24-36 h for biological activity detection. The cells were digested with 0.25% trypsin for 5 min, 1640 whole blood culture medium, the volume of which was not less than 1 time of the volume of the trypsin, was added to stop digestion, a cell suspension was collected, centrifuged at 1000 RPM for 3 min, the supernatant was discarded, 2 mL of 1640 whole blood culture medium was added to suspend the cells, 20 μL of the cell suspension was taken and stained with AOPI, the concentration of cells in the suspension was then detected by a cell counter, the suspension was prepared to a concentration of 5×10^4/mL with 1640 culture medium containing serum at a concentration of 10% and inoculated into a 96-well cell culture plate, with 100 μL per well, i.e., 5000 cells/well, and the plate was cultured at 37° C. and 5% CO2 overnight.
After 24 h, the original culture medium was discarded, and 100 μL of polypeptide compound solutions with different concentrations prepared with 1640 culture medium containing serum at a concentration of 1% were added, such that the final concentrations of the polypeptide compounds to be tested were 0.2, 0.4 and 0.8 ug/mL, respectively. In addition, an EGF control group was prepared by adding 100 μL of a recombinant human epidermal growth factor (EGF) solution prepared with 1640 culture medium containing serum at a concentration of 1%, with the final concentration being 100 ng/ml. In the model control group, an equal volume of 1640 culture medium containing serum at a concentration of 1% was added. After culturing at 37° C. and 5% CO2 for 24 h, 48 h and 72 h, the proliferation of the HaCaT cell line was detected by means of CCK8 kit.

RSC96 cells = assay: Proliferation of RSC96 cells (CCK-8); assay type: cell-based; details: 0.2, 0.4 and 0.8 ug/ml; 48 h; 0% serum
Method: Glial cells (RSC96 cells) were adjusted to a concentration of 1.0×10^5 to 5.0×10^5/mL for passaging and cultured at 37° C. and 5% CO2 for 24-36 h for biological activity detection. The cells were digested by trypsin, collected, prepared to a concentration of 5×10^4/mL with a serum-free medium, inoculated into a 96-well cell culture plate, with 100 μL per well, i.e., 5000 cells/well, and cultured overnight at 37° C. and 5% CO2. The polypeptide compound of the present invention was prepared to test concentrations (0.2 ug/ml, 0.4 ug/ml, and 0.8 ug/ml) with 0% serum culture medium as experimental groups, and an equal amount of 0% serum drug-free culture medium was added to the control group. They were added to 4 duplicate wells, and the resultants were incubated at 37° C. and 5% CO2 for 48 h. Detection of the proliferation of cells using CCK-8: the old culture medium was removed, and a serum-free medium containing 10% CCK-8 was added to each well. After incubation in an incubator for 2 h, the absorbance at 450 nm was measured by a microplate reader.

FGFR1 = FGFR1 (Homo sapiens, UniProt P11362); assay: FGFR receptor binding assay: ultrafiltration/mass spectrometry affinity screening to FGFR1 protein target; details: ratio of lower-layer to upper-layer compound MS signal intensity; the greater the ratio, the stronger the affinity
Method: The affinity of the polypeptide compound prepared by the present invention to FGFR1 was tested by using a control FGFR1 allosteric inhibitor (product number SSR128129E from Sigma) as a positive compound control.
Screening for the affinity to FGFR1 was as follows: FGFR1 solutions with an appropriate concentration were taken, the positive compound SSR128129E (Sigma) at an appropriate concentration and sample solutions of the inventive polypeptide compounds, as freeze-dried powders, dissolved in protein buffers were then respectively added. After incubation at room temperature for 50 min, ultrafiltration and screening were carried out to obtain various treated solutions. An appropriate volume of acetonitrile was added to each treated solution to precipitate a protein, the solution was then centrifuged, and the supernatant was taken and analyzed by mass spectrometry.
Affinity screening conditions: One-dimensional liquid-phase conditions were: chromatographic column; PolyLC chromatographic column, mobile phase A: KH2PO4, NaCl, pH 7.5, mobile phase B: acetonitrile, column temperature: 8° C., flow rate: 1 mL/min, and injection volume: appropriate; and two-dimensional liquid-phase conditions were: chromatographic column: BONUS RRHD, mobile phase A: 0.1% formic acid aqueous solution, mobile phase B: 0.1% formic acid in acetonitrile, column temperature: 60° C., flow rate: 0.3 mL/min, and injection volume: 40 uL. Gradient elution was used, i.e., 98% A (0-1 min), 98-10% A (1-6 min), 10% A (6-7.5 min), 10-98% A (7.5-8 min), and 98% A (8-9.5 min). Mass spectrometry conditions: Agilent 6530 Q-Tof, ESI ion source, voltage 3.5 KV, mass-to-charge ratio scanning range m/z=200-3000, acquisition mode: positive ion scanning, ion source temperature: 350° C., solvent removal temperature: 300° C., and nitrogen flow rate: 8 L/min.

Chain of FGFR1 (P11362 22-822, species assumed): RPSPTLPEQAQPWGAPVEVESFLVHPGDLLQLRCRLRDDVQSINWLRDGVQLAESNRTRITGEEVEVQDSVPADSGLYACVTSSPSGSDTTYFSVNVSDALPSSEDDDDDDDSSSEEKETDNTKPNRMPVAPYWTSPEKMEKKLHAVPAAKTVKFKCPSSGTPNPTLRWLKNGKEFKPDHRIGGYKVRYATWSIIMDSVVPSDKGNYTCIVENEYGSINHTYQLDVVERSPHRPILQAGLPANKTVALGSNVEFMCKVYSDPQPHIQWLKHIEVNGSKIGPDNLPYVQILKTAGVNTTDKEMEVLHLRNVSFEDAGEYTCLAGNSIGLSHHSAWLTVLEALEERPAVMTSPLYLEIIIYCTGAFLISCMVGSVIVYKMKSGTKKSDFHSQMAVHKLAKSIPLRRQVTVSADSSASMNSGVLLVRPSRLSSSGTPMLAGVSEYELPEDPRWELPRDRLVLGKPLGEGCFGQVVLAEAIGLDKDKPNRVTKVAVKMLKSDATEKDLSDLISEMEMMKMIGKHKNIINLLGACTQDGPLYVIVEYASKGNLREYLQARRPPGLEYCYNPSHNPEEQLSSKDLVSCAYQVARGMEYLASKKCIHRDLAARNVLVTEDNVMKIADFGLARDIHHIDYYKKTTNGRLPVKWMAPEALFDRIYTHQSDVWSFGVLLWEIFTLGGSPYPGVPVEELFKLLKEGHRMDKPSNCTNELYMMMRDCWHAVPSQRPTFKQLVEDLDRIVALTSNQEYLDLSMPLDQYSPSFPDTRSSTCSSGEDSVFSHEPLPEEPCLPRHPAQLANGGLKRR

Sequence | Anti-ulcer activity (mean relative ulcer inhibition rate) [1] | effect on proliferation of HaCaT cells (HaCaT cells) | effect on proliferation of RSC96 cells (RSC96 cells) | Cb/Ct range (FGFR1)
AAVLDKLE [Compound 68] | 0.85 | proliferation-promoting effect | significant proliferation promoting effects | 1.0-3
SMQASLEAEAKGKAE [Compound 1] | 1.00 | proliferation-promoting effect | significant proliferation promoting effects; also recorded: proliferation-promoting effect | 1.0-3
VDAAVLEKLE [Compound 67] | 0.24 | proliferation-promoting effects | proliferation-promoting effect | 1.0-3
